The text below walks through data of patent US20110244059A1, “INHIBITING OBESITY PROGRESSION BY INHIBITING ADIPOCYTE DIFFERENTIATION WITH A PRE-ADIPOCYTE AUTOPHAGY INHIBITOR” (The University of Medicine and Dentistry of New Jersey, priority 2008, published 2011).

Molecules are shown by their SMILES. “Also recorded” adds a separate entry of the source.

For one data set, the system named is wild type primary MEFs. Description: Adipocyte differentiation (adipogenesis) of primary MEFs under standard induction protocol. In kind it is cell-based, mouse.

Protocol for wild type primary MEFs: The MEFs were prepared from 13.5 days embryos of atg5+/+ and atg5−/− mice according to standard protocol. Briefly, whole mouse embryos were removed from the uterus, dissected and the head, tail, limbs and all internal organs were removed. The carcasses were minced, washed in PBS, and then incubated in 2 ml 0.05% Trypsin-EDTA (Invitrogen, CA, US) at 37° C. for 20 min with shaking. The digested cells were plated on a 100-mm dish in Dulbecco's modified Eagle's medium (DMEM, Invitrogen) with 10% fetal bovine serum (FCS, Invitrogen) and incubated at 37° C. in humidified air containing 5% CO2. Cells were grown for 24 hr until the culture was 90% confluent, and then split and passed on. The primary MEF cells of passage three to five were treated under standard protocol to induce adipocyte differentiation (Banks, A. S., et al. Deletion of SOCS7 leads to enhanced insulin action and enlarged islets of Langerhans. J. Clin. Invest. September 2005 115, 2462-2471). Briefly, cells were seeded in 6-well plates with cover slips and propagated to confluence. 48 hours later, which was designated as Day 0, differentiation was initiated using Dulbecco's Modified Eagle's Medium (DMEM) containing 10% fetal bovine serum, 5 μg/ml insulin, 1 μM dexamethasone, 0.5 mM 3-Isobutyl-1-methylxanthine (IBMX), and 10 μM troglitazone (Sigma, MO, US). After 2-day initiation, the media was replaced with a maintenance medium (DMEM containing 10% fetal bovine serum, 5 μg/ml insulin, and 10 μM troglitazone). Fresh maintenance medium was replaced every 2 days thereafter. Cells collected at various time points, up to maximal 14 days.
The medium was replaced with maintenance medium including 10 μM CQ two days after initiation. Fresh maintenance medium with 10 μM CQ was replaced every two days thereafter.
Live cells were observed under the Olympus IX70 microscope with relief contrast objectives (10× or 40×). […] For time-lapse microscopy, cells were plated on tissue culture plates and monitored using Olympus IX70 microscope with the 37° C. and 5% CO2 environmental chamber using 10× objectives. Images were collected with CCD video camera (Model MicroMax; Princeton Instruments, Trenton, N.J., US) at 5 min intervals and saved as images stacks using IPLab software (BD Biosciences Bioimaging, Rockville, Md., US). Images were processed using Image J software (NIH, Bethesda, Md., US).
Bodipy: The differentiating cells were stained with BODIPY 493/503 (Invitrogen, CA, US) as described (DiDanato, D. et al. Fixation methods for the study of lipid droplets by immunofluorescence microscopy. J Histochem. Cytochem June 2003 51, 773-780; Gocze, P. M. et al. Factors underlying the variability of lipid droplet fluorescence in MA-10 Lydig tumor cells. Cytometry 17, 151-158.) Briefly, the cell culture slides were washed once with phosphate-buffered saline (PBS), fixed with 3% paraformaldehyde in PBS for 30 minutes at room temperature, and washed 4 times with PBS, and then stained with 10 μg/ml Bodipy 493/503 at room temperature for 15 minutes in darkness, mounted with Vectashield Mounting Medium (Vector Laboratories, CA, US). Oil Red-O: The cells on cover slides were stained with Oil Red-O (Sigma, MO, US) according to Kim et al with some modification (Kim, Y. K., et al. Reversine stimulates adipocyte differentiation and downregulates Akt and p70(s6k) singaling pathways in 3T3-L1 cells. Biochem Biophys Res Commun 358, 553-558). Oil Red-O was dissolved in isopropanol to 3.5 mg/ml. Before using, dilute 6 parts Oil Red-O stock with 4 parts H2O, sit at room temp for 20 min, and filter through 0.2 μm filter. The slides were washed once with PBS, fixed with 4% paraformaldehyde (Fisher Scientific, PA, US) buffered with PBS for 1 hr, and then washed twice with 60% isopropanol for 5 minutes each. Cells were then air dried and stained with Oil Red-O working solution for 30 minutes at 25° C.

On to `CCN(CC)CCCC(C)Nc1ccnc2cc(Cl)ccc12` (centres unmarked) [chloroquine], for which, in the data set with wild type primary MEFs (10 μM chloroquine, 14 days after differentiation induction, FIG. 9B), the “lipid accumulation, Bodipy 493/503 staining” value is “same inhibitory effect”. Moreover, the “lipid accumulation, Oil Red-O staining (spectrometry)” value with wild type primary MEFs (10 μM chloroquine, 14 days after differentiation induction, FIG. 9C) is “same inhibitory effect”. In addition, the “cytotoxic effect on MEFs (Tunel assay)” value with wild type MEFs (10 μM chloroquine for 4 days, FIG. 9D) is “little cytotoxic effect; also recorded: non-toxic”.
In the case of `CCN(CCO)CCCC(C)Nc1ccnc2cc(Cl)ccc12` (centres unmarked) [hydroxychloroquine], the “adipocyte differentiation of primary MEFs” value with wild type primary MEFs (1 micro molar hydroxychloroquine, lesser degree than 10 micro molar) is “had inhibitory effect on blocking adipocyte differentiation”; in the data set with wild type primary MEFs (5 micro molar hydroxychloroquine, lesser degree than 10 micro molar) it was “had inhibitory effect on blocking adipocyte differentiation”; in the data set on wild type primary MEFs (10 micro molar hydroxychloroquine during differentiation induction) it was “stalled at the initial stage of adipocyte differentiation”. Further, the “fate of cells that did differentiate” value in the data set on wild type primary MEFs (hydroxychloroquine treatment, 10 micro molar) is “eventually died”. In addition, the “viability of the undifferentiated cells” value with wild type MEFs is “not apparently affected”.
